From ChEMBL document CHEMBL1641443, “Design, synthesis and biological evaluation of small molecule inhibitors of CD4-gp120 binding based on virtual screening” (Bioorg Med Chem, 2011)

tested on: Human immunodeficiency virus 1; assay: Antiviral activity against recombinant HIV1 YU2 in Cf2Th-CCR5 cells assessed as viral infectivity by luciferase assasy relative to JRC-II-191; format: functional, isolate YU2; note: test concentration or dose not given here

Row | Compound | fold change (FC)
1 | NC(=O)C1CCN(CCC(=O)Nc2ccc(Br)cc2)CC1 | 0
2 | CC1(C)CC(=O)c2cc(C(=O)Nc3ccc(Cl)cc3)c(=O)[nH]c2C1 | 0
3 | CCN=C(S)N1CCN(CC(=O)Nc2ccc(Br)cc2)CC1 | 0
4 | Nc1ccc(C(=O)CC(=O)Nc2ccc(Cl)cc2)cc1 | 0
5 | N=c1oc2cc(O)ccc2cc1C(=O)Nc1ccc(Cl)cc1 | 0
6 | O=C(CN1CCCCCC1)Nc1ccc(Br)cc1 | 0
7 | CC1CCCN(CCC(=O)Nc2ccc(Br)cc2)C1 (configuration not stated) | 0
8 | Cc1ccc(N(C)C)cc1NC(=O)COc1ccc(Cl)cc1 | 0
9 | CCN1CCC(CNC(=O)C(=O)Nc2ccc(Cl)c(F)c2)CC1 | 0.2
10 | CC1(C)CC(NC(=O)C(=O)Nc2ccc(Cl)c(F)c2)CC(C)(C)[N+]1(C)[O-] (configuration not stated) | 0.23
11 | CN1CCCC(ONC(=O)C(=O)Nc2ccc(Cl)c(F)c2)C1 (configuration not stated) | 0
12 | CC1CCCCN1C(C)CNC(=O)C(=O)Nc1ccc(Cl)c(F)c1 (configuration not stated) | 0
13 | CC1CN(CCNC(=O)C(=O)Nc2ccc(Cl)c(F)c2)CC(C)O1 (configuration not stated) | 0
14 | CC(C)(CNC(=O)C(=O)Nc1ccc(Cl)c(F)c1)N1CCOCC1 | 0
15 | CN1CCC(CNC(=O)C(=O)Nc2ccc(Cl)c(F)c2)(N(C)C)CC1 | 0.1
16 | CCn1ncnc1C(C)NC(=O)C(=O)Nc1ccc(Cl)c(F)c1 (configuration not stated) | 0
17 | CCc1n[nH]c(NC(=O)C(=O)Nc2ccc(Cl)c(F)c2)c1CC | 0
18 | O=C(NCc1n[nH]c2c1CCCCC2)C(=O)Nc1ccc(Cl)c(F)c1 | 0.1
19 | O=C(Nc1ccc(Cl)c(F)c1)C(=O)Nc1cnn2c1NCCC2 | 0
20 | O=C(Nc1ccc(Cl)c(F)c1)C(=O)Nc1cccc2[nH]ncc12 | 0
21 | Cn1ccnc1C(O)(CCNC(=O)C(=O)Nc1ccc(Cl)c(F)c1)C(F)(F)F (configuration not stated) | 0
22 | CC(NC(=O)C(=O)Nc1ccc(Cl)c(F)c1)c1ccc2c(c1)NC(=O)CO2 (configuration not stated) | 0

Row | Compound | fold change (FC)
23 | CCN1CCCC1CNC(=O)C(=O)Nc1ccc(Cl)cc1 (configuration not stated) | 0
24 | O=C(Nc1ccc(Cl)c(F)c1)C(=O)N[C@H]1CCN(Cc2ccccc2)C1 | 0
25 | O=C(NCC1CCN(C2CC2)C1)C(=O)Nc1ccc(Cl)c(F)c1 (configuration not stated) | 0.3
26 | O=C(Nc1ccc(Cl)c(F)c1)C(=O)NC1CCN(C2CCCCC2)C1 (configuration not stated) | 0.48
27 | O=C(NCC1CCN(CCN2CCOCC2)C1)C(=O)Nc1ccc(Cl)c(F)c1 (configuration not stated) | 0.1
28 | O=C(NC[C@@H]1CCCN2CCCC[C@H]12)C(=O)Nc1ccc(Cl)c(F)c1 | 0
29 | CC(C)(C)c1cc(CNC(=O)C(=O)Nc2ccc(Cl)c(F)c2)n[nH]1 | 0.1
30 | CC1(C)CC(NC(=O)C(=O)Nc2ccc(Cl)cc2F)CC(C)(C)N1 | 0
31 | CC1(C)CC(NC(=O)C(=O)Nc2ccc(Cl)cc2Cl)CC(C)(C)N1 | 0
32 | Cc1cc(Cl)ccc1NC(=O)C(=O)NC1CC(C)(C)NC(C)(C)C1 | 0
33 | CC1(C)CC(NC(=O)C(=O)Nc2ccc(Cl)cc2C(F)(F)F)CC(C)(C)N1 | 0
34 | COc1cc(Cl)ccc1NC(=O)C(=O)NC1CC(C)(C)NC(C)(C)C1 | 0
35 | CCOc1cc(Cl)ccc1NC(=O)C(=O)NC1CC(C)(C)NC(C)(C)C1 | 0
36 | CC1(C)CC(NC(=O)C(=O)Nc2ccc(Cl)cc2OCc2ccccc2)CC(C)(C)N1 | 0
37 | CC1(C)Cc2c(sc(NC(=O)C(=O)Nc3ccc(Cl)c(F)c3)c2C#N)C(C)(C)N1 | 0
38 | Nc1ncc(CNC(=O)C(=O)Nc2ccc(Cl)c(F)c2)cn1 | 0
39 | CNS(=O)(=O)Cc1ccc(CNC(=O)C(=O)Nc2ccc(Cl)c(F)c2)cc1 | 0
40 | CC(NC(=O)C(=O)Nc1ccc(Cl)c(F)c1)c1ccc(S(N)(=O)=O)cc1 (configuration not stated) | 0
41 | CCN(CC)C(CNC(=O)C(=O)Nc1ccc(Cl)c(F)c1)CC(C)C (configuration not stated) | 0
42 | CN(C)C(CNC(=O)C(=O)Nc1ccc(Cl)c(F)c1)c1ccco1 (configuration not stated) | 0
43 | CN(C)C(CNC(=O)C(=O)Nc1ccc(Cl)c(F)c1)N1CCCC1 (configuration not stated) | 0
44 | O=C(NCC(c1ccco1)N1CCCC1)C(=O)Nc1ccc(Cl)c(F)c1 (configuration not stated) | 0

Row | Compound | fold change (FC)
45 | O=C(NCC(c1ccc(Cl)cc1)N1CCCC1)C(=O)Nc1ccc(Cl)c(F)c1 (configuration not stated) | 0.4
46 | CN1CCN(C(CNC(=O)C(=O)Nc2ccc(Cl)c(F)c2)c2cccs2)CC1 (configuration not stated) | 0
47 | CN1CCN(C(CNC(=O)C(=O)Nc2ccc(Cl)c(F)c2)c2ccccc2Cl)CC1 (configuration not stated) | 0.11
48 | CC(NC(=O)C(=O)Nc1ccc(Cl)c(F)c1)C(c1ccccc1Cl)N1CCOCC1 (configuration not stated) | 0
49 | O=C(NCc1ccccc1CN1CCOCC1)C(=O)Nc1ccc(Cl)c(F)c1 | 0.5
50 | COc1cc(NC(=O)C(=O)NC2CC(C)(C)NC(C)(C)C2)ccc1Cl | 0
51 | CC(C)Oc1cc(NC(=O)C(=O)NC2CC(C)(C)NC(C)(C)C2)ccc1Cl | 0
52 | CC1(C)CC(NC(=O)C(=O)Nc2ccc(Cl)c(OCc3ccccc3)c2)CC(C)(C)N1 | 0
53 | CC1(C)CC(NC(=O)C(=O)Nc2cccc(OCc3ccccc3)c2)CC(C)(C)N1 | 0
54 | CC(C)COc1cc(Cl)ccc1NC(=O)C(=O)NC1CC(C)(C)NC(C)(C)C1 | 0
55 | CC1(C)CC(NC(=O)C(=O)Nc2ccc(N=[N+]=[N-])cc2)CC(C)(C)N1 | 0
56 | CC(C)c1ccccc1NC(=O)C(=O)NC1CC(C)(C)NC(C)(C)C1 | 0
57 | CC(C)c1cccc(NC(=O)C(=O)NC2CC(C)(C)NC(C)(C)C2)c1 | 0
58 | CC1(C)CC(NC(=O)C(=O)Nc2c[nH]c3ncccc23)CC(C)(C)N1 | 0
59 | CC1(C)CC(NC(=O)C(=O)Nc2ccc3ccccc3c2)CC(C)(C)N1 | 0
60 | CC1(C)CC(NC(=O)C(=O)Nc2ccc(-n3cc(CCc4ccccc4)nn3)cc2)CC(C)(C)N1 | 0
61 | CC1(C)CC(NC(=O)C(=O)Nc2ccc(-n3cc(-c4ccccc4)nn3)cc2)CC(C)(C)N1 | 0
62 | CC1(C)CC(NC(=O)C(=O)Nc2ccc(-n3cc(CCCCCO)nn3)cc2)CC(C)(C)N1 | 0
63 | O=C(COc1ccc(Cl)cc1)Nc1cc(=O)[nH]c(=O)[nH]1 | 0
64 | Cc1cc(SCC(=O)Nc2ccc(Cl)cc2)nc(=O)[nH]1 | 0
65 | O=C(Nc1ccc(Cl)cc1)c1cc2c([nH]c1=O)CCCC2 | 0
66 | O=C(Nc1ccc(Cl)cc1)Nc1ncnc2[nH]cnc12 | 0

Row | Compound | fold change (FC)
67 | O=C(Nc1cc[nH]c(=O)n1)c1sc2cc(Cl)ccc2c1Cl | 0
68 | O=C(Nc1ccc2c(c1)C(=O)NC2=O)c1ccc(Cl)c(Cl)c1 | 0
69 | C[C@@H](Sc1nc(=O)cc(N)[nH]1)C(=O)Nc1ccc(Cl)cc1 | 0
70 | O=C(COc1ccc(Cl)cc1)Nc1ccc2[nH]c(=O)[nH]c2c1 | 0
71 | O=C(CSc1nc(=O)[nH]c2c1CCCC2)Nc1ccc(Cl)cc1 | 0
72 | CN1CCC(NC(=O)Nc2ccc(Cl)cc2Cl)CC1 | 0
73 | CN1CCCN(C(=O)COc2ccc(Cl)cc2)CC1 | 0
74 | Cc1cccc(-c2cc(C(=O)Nc3ccc(Cl)cc3)n[nH]2)c1O | 0
75 | O=C(Nc1ccc(Cl)cc1)c1cc(-n2cnnc2)[nH]n1 | 0
76 | CC1(C)OC(=O)N(CCC(=O)Nc2ccc(Cl)cc2)[C@@]1(C)O | 0
77 | Cc1cc(OCC(=O)NCc2nc[nH]n2)ccc1Cl | 0
78 | O=C(NCCc1cnc[nH]1)Nc1ccc(Cl)c(Cl)c1 | 0
79 | CC1(C)NC(=O)N(C[C@H](O)COc2ccc(Cl)cc2)C1=O | 0
80 | O=C(COC(=O)c1n[nH]c2ccccc12)Nc1ccc(Cl)cn1 | 0
81 | C[C@H](Sc1nc(N)cc(N)n1)C(=O)Nc1ccc(Cl)cc1 | 0
82 | CC1(C)CC(NC(=O)C(=O)Nc2ccc3cc[nH]c3c2)CC(C)(C)N1 | 0
83 | CC1Sc2cc(C(=O)NC3CC(C)(C)NC(C)(C)C3)ccc2NC1=O (configuration not stated) | 0
84 | CC1(C)CC(=NNC(=O)c2n[nH]c3c2CCCC3)CC(C)(C)N1 | 0
85 | O=C(NCc1ccco1)C(=O)Nc1ccc(Br)cc1 | 0
86 | CC1(C)CC(NC(=O)C(=O)NCCc2ccc(Cl)cc2)CC(C)(C)N1 | 0
87 | O=C(Nc1ccc(Br)cc1)c1cc(CN2CCCC2)on1 | 0
88 | O=C(NCC1COc2ccccc2O1)C(=O)Nc1ccc(Br)cc1 (configuration not stated) | 0

Row | Compound | fold change (FC)
89 | Cc1nn(C)cc1CN(C)CC(=O)Nc1ccc(Br)cc1 | 0
90 | COc1cccc(N[C@@H](C)C(=O)Nc2ccc(Br)cc2)c1 | 0
91 | O=C(NCc1ccc2c(c1)OCO2)C(=O)Nc1ccc(Br)cc1 | 0
92 | COc1cccc(NC(=O)C(=O)Nc2ccc(Cl)cc2)c1 | 0
93 | O=C(CSCc1cc(O)[nH]n1)Nc1ccc(Br)cc1 | 0
94 | CCN1CCCC1CNC(=O)C(=O)Nc1c(C(=O)OC)sc(C)c1C (configuration not stated) | 0
95 | O=C(Nc1ccc(Br)cc1)C(=O)Nc1cccc2ccccc12 | 0
96 | O=C(NCC1OCCc2ccccc21)C(=O)Nc1ccc(Br)cc1 (configuration not stated) | 0
97 | CC(CC(=O)Nc1ccc(Br)cc1)Nc1cccc(CO)c1 (configuration not stated) | 0
98 | COc1cccc(CNC(=O)C(=O)Nc2ccc(Cl)cc2)c1 | 0
99 | O=C(NC[C@@H]1COC2(CCCC2)O1)C(=O)Nc1ccc(Cl)cc1 | 0
100 | CC(C)C1CCN(CCC(=O)Nc2ccc(Br)cc2)CC1 | 0
101 | Cc1cc(NC(=O)C(=O)c2c[nH]c3ccccc23)ccc1Br | 0
102 | C[C@@H]1CN(CCC(=O)Nc2ccc(Br)cc2)C[C@H](C)O1 | 0
103 | CCOC(=O)[C@H]1CCCN(CCC(=O)Nc2ccc(Br)cc2)C1 | 0
104 | C[C@H]1CCCN(CCC(=O)Nc2ccc(Cl)cc2)C1 | 0
105 | Cc1ccc(C(C)C)c(OCC(=O)NNC(=O)Nc2ccc(Cl)cc2)c1 | 0
106 | CC1(C)CC(NC(=O)C(=O)Nc2ccc(Cl)cc2)CC(C)(C)N1 | 1
107 | O=C(Nc1ccc(Cl)cc1)C(=O)c1c[nH]c2ccccc12 | 0
